Experimental data reported in ChEMBL document CHEMBL1137289, “Structure-activity relationships of novel antibacterial translation inhibitors: 3,5-diamino-piperidinyl triazines” (Bioorg Med Chem Lett, 2006).
In brackets after ≈: the same amount, converted by molar mass.

Columns and labels:
Escherichia coli [1] = assay: microbe, parasite or virus in culture; conditions: ATCC 25922
Description: Antibacterial activity against Escherichia coli ATCC 25922

Escherichia coli [2] = assay: Inhibition of protein synthesis in Escherichia coli S30 extracts by coupled transcription-translation assay; format: functional; conditions: Escherichia coli
Escherichia coli [3] = assay: Antibacterial activity against wild type impermeable Escherichia coli LMG194; format: functional
Staphylococcus aureus = assay: microbe, parasite or virus in culture; conditions: ATCC 25923
Description: Antibacterial activity against Staphylococcus aureus ATCC 25923

Pseudomonas aeruginosa = assay: Antibacterial activity against Pseudomonas aeruginosa ATCC 27853; format: functional
[4] = Cytotoxicity against CEM T cells after 72 hrs by proliferation assay; format: cell-based, CCRF-CEM; conditions: human, CCRF-CEM (CEM) T cells
Escherichia coli [5] = assay: Antibacterial activity against isogenic permeable mutant Escherichia coli LMG194; format: functional

N[C@@H]1C[C@H](N)CN(c2nc(Nc3cccc(NC(=O)c4cccc(O)c4O)c3)nc(N3C[C@H](N)C[C@H](N)C3)n2)C1
MIC (Escherichia coli [1]): 8 µg/mL (≈ 14.6 µM)
IC50 (Escherichia coli [2]): 4 µM

N[C@@H]1C[C@H](N)CN(c2nc(Nc3ccc(S(N)(=O)=O)cc3)nc(N3C[C@H](N)C[C@H](N)C3)n2)C1
MIC (Escherichia coli [3]): > 64 µg/mL
MIC (Escherichia coli [1]): > 64 µg/mL
IC50 (Escherichia coli [2]): 4 µM
MIC (Staphylococcus aureus): > 64 µg/mL

Cc1cc(C)cc(Nc2nc(N3C[C@H](N)C[C@H](N)C3)nc(N3C[C@H](N)C[C@H](N)C3)n2)c1
MIC (Escherichia coli [3]): > 64 µg/mL
MIC (Escherichia coli [1]): 64 µg/mL (≈ 150 µM)
IC50 (Escherichia coli [2]): 13 µM
MIC (Staphylococcus aureus): 32 µg/mL (≈ 75 µM)

N[C@@H]1C[C@H](N)CN(c2nc(Nc3ccc(NC(=O)c4ccc(Cl)cc4)c(O)c3)nc(N3C[C@H](N)C[C@H](N)C3)n2)C1
MIC (Escherichia coli [1]): 2 µg/mL (≈ 3.52 µM)
IC50 (Escherichia coli [2]): 7 µM
MIC (Pseudomonas aeruginosa): ≤ 0.5 µg/mL
MIC (Staphylococcus aureus): 16 µg/mL (≈ 28.2 µM)
CC50 at 72 h [4]: 180 µM

N[C@@H]1C[C@H](N)CN(c2nc(Nc3ccc(C(=O)CC(=O)Nc4ccc(F)c(F)c4)cc3)nc(N3C[C@H](N)C[C@H](N)C3)n2)C1
MIC (Escherichia coli [1]): 4 µg/mL (≈ 6.72 µM)
IC50 (Escherichia coli [2]): 9 µM
MIC (Pseudomonas aeruginosa): 1 µg/mL (≈ 1.68 µM)
MIC (Staphylococcus aureus): 16 µg/mL (≈ 26.9 µM)
CC50 at 72 h [4]: 179 µM

N[C@@H]1C[C@H](N)CN(c2nc(Nc3ccc(C(=O)CC(=O)Nc4ccc(-c5ccccc5)cc4)cc3)nc(N3C[C@H](N)C[C@H](N)C3)n2)C1
MIC (Escherichia coli [1]): 4 µg/mL (≈ 6.29 µM)
IC50 (Escherichia coli [2]): 6 µM
MIC (Pseudomonas aeruginosa): ≤ 1 µg/mL
MIC (Staphylococcus aureus): 16 µg/mL (≈ 25.2 µM)
CC50 at 72 h [4]: 24 µM

N[C@@H]1C[C@H](N)CN(c2nc(Nc3ccc(C(=O)Nc4ccc5[nH]cnc5c4)c(O)c3)nc(N3C[C@H](N)C[C@H](N)C3)n2)C1
MIC (Escherichia coli [1]): 8 µg/mL (≈ 13.9 µM)
IC50 (Escherichia coli [2]): 4 µM

N[C@@H]1C[C@H](N)CN(c2nc(Nc3ccc(C(=O)N4CCc5cc(Br)ccc54)c(O)c3)nc(N3C[C@H](N)C[C@H](N)C3)n2)C1
MIC (Escherichia coli [1]): 2 µg/mL (≈ 3.13 µM)
IC50 (Escherichia coli [2]): 9 µM

N[C@@H]1C[C@H](N)CN(c2nc(Nc3ccc(C(=O)CC(=O)Nc4ccc5c(c4)OC(F)(F)O5)cc3)nc(N3C[C@H](N)C[C@H](N)C3)n2)C1
MIC (Escherichia coli [1]): 4 µg/mL (≈ 6.25 µM)
IC50 (Escherichia coli [2]): 6 µM
MIC (Pseudomonas aeruginosa): 1 µg/mL (≈ 1.56 µM)
MIC (Staphylococcus aureus): 8 µg/mL (≈ 12.5 µM)
CC50 at 72 h [4]: 146 µM

N[C@@H]1C[C@H](N)CN(c2nc(Nc3ccc(Br)cc3)nc(N3C[C@H](N)C[C@H](N)C3)n2)C1
MIC (Escherichia coli [3]): > 64 µg/mL
MIC (Escherichia coli [1]): > 64 µg/mL
IC50 (Escherichia coli [2]): 4 µM
MIC (Staphylococcus aureus): > 64 µg/mL
MIC (Escherichia coli [5]): 4 µg/mL (≈ 8.38 µM)

N[C@@H]1C[C@H](N)CN(c2nc(Nc3ccc4[nH]cnc4c3)nc(N3C[C@H](N)C[C@H](N)C3)n2)C1
MIC (Escherichia coli [1]): 64 µg/mL (≈ 146 µM)
IC50 (Escherichia coli [2]): 14 µM

N[C@@H]1C[C@H](N)CN(c2nc(NC3CCNC3)nc(N3C[C@H](N)C[C@H](N)C3)n2)C1 (stereo partly drawn)
IC50 (Escherichia coli [2]): 36 µM

N[C@@H]1C[C@H](N)CN(c2nc(Nc3ccncc3)nc(N3C[C@H](N)C[C@H](N)C3)n2)C1
IC50 (Escherichia coli [2]): 32 µM

N[C@@H]1C[C@H](N)CN(c2nc(Nc3ccc([N+](=O)[O-])cc3)nc(N3C[C@H](N)C[C@H](N)C3)n2)C1
MIC (Escherichia coli [3]): 32 µg/mL (≈ 72.2 µM)
MIC (Escherichia coli [1]): 32 µg/mL (≈ 72.2 µM)
IC50 (Escherichia coli [2]): 4 µM
MIC (Staphylococcus aureus): 32 µg/mL (≈ 72.2 µM)
MIC (Escherichia coli [5]): 4 µg/mL (≈ 9.02 µM)

N[C@@H]1C[C@H](N)CN(c2nc(Nc3ccccc3F)nc(N3C[C@H](N)C[C@H](N)C3)n2)C1
MIC (Escherichia coli [3]): > 64 µg/mL
MIC (Escherichia coli [1]): > 64 µg/mL
IC50 (Escherichia coli [2]): 5 µM
MIC (Staphylococcus aureus): > 64 µg/mL

Cc1ccc2nc(-c3ccc(Nc4nc(N5C[C@H](N)C[C@H](N)C5)nc(N5C[C@H](N)C[C@H](N)C5)n4)cc3)sc2c1
MIC (Escherichia coli [1]): 2 µg/mL (≈ 3.66 µM)
IC50 (Escherichia coli [2]): 10 µM
MIC (Staphylococcus aureus): 2 µg/mL (≈ 3.66 µM)
CC50 at 72 h [4]: 33 µM

CN(C)c1ccc(Nc2nc(N3C[C@H](N)C[C@H](N)C3)nc(N3C[C@H](N)C[C@H](N)C3)n2)cc1
MIC (Escherichia coli [3]): > 64 µg/mL
MIC (Escherichia coli [1]): > 64 µg/mL
IC50 (Escherichia coli [2]): 11 µM
MIC (Staphylococcus aureus): > 64 µg/mL

N[C@@H]1C[C@H](N)CN(c2nc(Nc3ccc4c(c3)CCC4)nc(N3C[C@H](N)C[C@H](N)C3)n2)C1
MIC (Escherichia coli [3]): 64 µg/mL (≈ 146 µM)
MIC (Escherichia coli [1]): > 64 µg/mL
IC50 (Escherichia coli [2]): 15 µM
MIC (Staphylococcus aureus): 32 µg/mL (≈ 73 µM)
MIC (Escherichia coli [5]): 8 µg/mL (≈ 18.2 µM)

N[C@@H]1C[C@H](N)CN(c2nc(N3C[C@H](N)C[C@H](N)C3)nc(N3CCc4cc(Br)ccc43)n2)C1
MIC (Escherichia coli [1]): 16 µg/mL (≈ 31.8 µM)
IC50 (Escherichia coli [2]): 5 µM

N[C@@H]1C[C@H](N)CN(c2nc(NO)nc(N3C[C@H](N)C[C@H](N)C3)n2)C1
IC50 (Escherichia coli [2]): 45 µM

COc1ccc(Nc2nc(N3C[C@H](N)C[C@H](N)C3)nc(N3C[C@H](N)C[C@H](N)C3)n2)cc1
MIC (Escherichia coli [3]): > 64 µg/mL
MIC (Escherichia coli [1]): > 64 µg/mL
IC50 (Escherichia coli [2]): 14 µM
MIC (Staphylococcus aureus): > 64 µg/mL

Nc1nc(N2C[C@H](N)C[C@H](N)C2)nc(N2C[C@H](N)C[C@H](N)C2)n1
IC50 (Escherichia coli [2]): 92 µM

N[C@@H]1C[C@H](N)CN(c2nc(Nc3ccc(Cl)c(Cl)c3)nc(N3C[C@H](N)C[C@H](N)C3)n2)C1
MIC (Escherichia coli [1]): 32 µg/mL (≈ 68.5 µM)
IC50 (Escherichia coli [2]): 7 µM

N[C@@H]1C[C@H](N)CN(c2nc(N3CCNCC3)nc(N3C[C@H](N)C[C@H](N)C3)n2)C1
IC50 (Escherichia coli [2]): 23 µM

N[C@@H]1C[C@H](N)CN(c2nc(Nc3ccc(-c4ccccc4)cc3)nc(N3C[C@H](N)C[C@H](N)C3)n2)C1
MIC (Escherichia coli [1]): 16 µg/mL (≈ 33.7 µM)
IC50 (Escherichia coli [2]): 9 µM
